According to patent US20230090708A1, “METHODS AND COMPOSITIONS FOR THE TREATMENT OF HEMANGIOMA” (MASSEY VENTURES LIMITED, priority 2020, published 2023):
Converted amounts (≈) assume the structure as drawn. “Also recorded” adds a separate entry of the source. Read-outs that look alike come from different tables or passages of the source.

Legend:
[1] = system: proliferating infantile hemangioma cells derived from multiple patients (n=5); test: Example 4: single agents and combinations on five patient-derived cell lines, MTT; type: cell-based, human; details: for Individual Responders at 72 Hours with ≥30% Inhibition vs. Cells + Adjuvant: responders/cell lines; for Results Summary: 72 hours, n=5 cell lines; for Estimated Optimal Dosage Range in vitro / inhibition of all five patient-derived haemangioma cell lines: single agent
Description: An in vitro cell culture model of infantile hemangioma was developed to assess the impact of renin-angiotensin system inhibitors on cellular proliferation. A primary cell line of proliferating infantile hemangioma cells, including haemangioma stem cells, was derived from a tissue biopsy obtained from patients during the proliferating phase of the disease. The primary cell lines are cultured in 25 cm^2 flasks using standard culture media and conditions. The cultured cells are used to seed 96-well plates with a seed cell concentration of 2500 or 5000 cells per well, with additional culture media (200 μL). All studies are performed in triplicate. The plates are incubated overnight to allow cell adherence to the wells. The wells are photographed to confirm cell adherence and confluency. The appropriate drug(s) to be examined are subsequently added to the wells. After 24 hours, one set of plates (experimental and blank) is stopped. The media is aspirated from each well and stored frozen for possible future analyses. Media is added to the wells and an MTT determination is undertaken according to standard protocols. This is repeated at 48 and 72 hours. From the triplicate incubations of each drug concentration at each time, as well as for all controls, the mean±standard deviation is calculated. The net survival (optical density value) is calculated by subtracting the appropriate blank mean value from each cell culture. From the MTT data, the percentage of survival of cells in the presence of each concentration of drug after each time of culturing is determined. […] The experimental protocol was performed as per Example 1. Briefly, cells were seeded in 96-well plates at a concentration of 2500 cells/well in triplicate for each drug and drug combination. Drug(s) were added to each well 24 hours after seeding and re-dosed every 24 hours. Cell viability was assessed by MTT assay after 24, 48, and 72 hours. All plates were performed in triplicate. Drugs were assessed alone and in combination as described in Table 3.

[2] = cited from earlier work
[3] = cited from earlier work; remark: listed apart in the source
[4] = system: proliferating hemangioma cell lines (n=9); test: Example 6: single agents and combinations on nine primary cell lines, MTT, CompuSyn combination index; type: cell-based, human; details: 1 to 10 μM; 72 hours; n=9
Description: (§1) An in vitro cell culture model of infantile hemangioma was developed to assess the impact of renin-angiotensin system inhibitors on cellular proliferation. A primary cell line of proliferating infantile hemangioma cells, including haemangioma stem cells, was derived from a tissue biopsy obtained from patients during the proliferating phase of the disease. The primary cell lines are cultured in 25 cm^2 flasks using standard culture media and conditions. The cultured cells are used to seed 96-well plates with a seed cell concentration of 2500 or 5000 cells per well, with additional culture media (200 μL). All studies are performed in triplicate.
(§2) The plates are incubated overnight to allow cell adherence to the wells. The wells are photographed to confirm cell adherence and confluency. The appropriate drug(s) to be examined are subsequently added to the wells. After 24 hours, one set of plates (experimental and blank) is stopped. The media is aspirated from each well and stored frozen for possible future analyses. Media is added to the wells and an MTT determination is undertaken according to standard protocols. This is repeated at 48 and 72 hours.
(§3) From the triplicate incubations of each drug concentration at each time, as well as for all controls, the mean±standard deviation is calculated. The net survival (optical density value) is calculated by subtracting the appropriate blank mean value from each cell culture. From the MTT data, the percentage of survival of cells in the presence of each concentration of drug after each time of culturing is determined.
A study was undertaken using combinations of ACE inhibitors, beta blockers and angiotensin II type 2 receptor blockers to inhibit proliferating hemangioma cells. […] Patient histories pertaining to each cell line is described in Table 5.
The experimental protocol was performed as per Example 1. Briefly, cells were seeded in 96-well plates at concentrations of 2500 cells/well in triplicate for each drug and drug combination. Drug(s) were added to each well 24 hours after seeding and re-dosed every 24 hours. Cell viability was assessed by MTT assay after 24, 48, and 72 hours. All plates were performed in triplicate. Drugs were assessed alone and in combination, as described in Table 6. Propranolol was used as a model beta blocker, cilazapril as a model ACE inhibitor, and SMM02 (L-159686) as a model AT2Ri. Synergy was measured using the CompuSyn open-source software protocol for quantifying synergism and antagonism that uses the median-effect equation and mass-action laws to generate a combination index (www.compusyn.com). Synergism, additive effects and antagonism are defined as a CI<1, CI=1, and CI>1, respectively.

[5] = cited from earlier work; remark: listed apart in the source
[6] = in words; cited from earlier work
[7] = system: proliferating infantile haemangioma cells; test: Example 2: single 100 μM dose on primary haemangioma cell line, MTT; type: cell-based, human; details: for inhibitory effect on haemangioma cell proliferation: 24, 48, 72 hours
Description: An in vitro cell culture model of infantile hemangioma was developed to assess the impact of renin-angiotensin system inhibitors on cellular proliferation. A primary cell line of proliferating infantile hemangioma cells, including haemangioma stem cells, was derived from a tissue biopsy obtained from patients during the proliferating phase of the disease. The primary cell lines are cultured in 25 cm^2 flasks using standard culture media and conditions. The cultured cells are used to seed 96-well plates with a seed cell concentration of 2500 or 5000 cells per well, with additional culture media (200 μL). All studies are performed in triplicate. The plates are incubated overnight to allow cell adherence to the wells. The wells are photographed to confirm cell adherence and confluency. The appropriate drug(s) to be examined are subsequently added to the wells. After 24 hours, one set of plates (experimental and blank) is stopped. The media is aspirated from each well and stored frozen for possible future analyses. Media is added to the wells and an MTT determination is undertaken according to standard protocols. This is repeated at 48 and 72 hours. From the triplicate incubations of each drug concentration at each time, as well as for all controls, the mean±standard deviation is calculated. The net survival (optical density value) is calculated by subtracting the appropriate blank mean value from each cell culture. From the MTT data, the percentage of survival of cells in the presence of each concentration of drug after each time of culturing is determined. […] This model recapitulates the process of locally administering the drug directly to the hemangioma microenvironment, which is representative of diffusing the drug through skin to reach the target cells.

ACE = ACE (Homo sapiens, UniProt P12821); details: enzyme source not given; cited from earlier work
Sequence of ACE (P12821 30-1306, species assumed): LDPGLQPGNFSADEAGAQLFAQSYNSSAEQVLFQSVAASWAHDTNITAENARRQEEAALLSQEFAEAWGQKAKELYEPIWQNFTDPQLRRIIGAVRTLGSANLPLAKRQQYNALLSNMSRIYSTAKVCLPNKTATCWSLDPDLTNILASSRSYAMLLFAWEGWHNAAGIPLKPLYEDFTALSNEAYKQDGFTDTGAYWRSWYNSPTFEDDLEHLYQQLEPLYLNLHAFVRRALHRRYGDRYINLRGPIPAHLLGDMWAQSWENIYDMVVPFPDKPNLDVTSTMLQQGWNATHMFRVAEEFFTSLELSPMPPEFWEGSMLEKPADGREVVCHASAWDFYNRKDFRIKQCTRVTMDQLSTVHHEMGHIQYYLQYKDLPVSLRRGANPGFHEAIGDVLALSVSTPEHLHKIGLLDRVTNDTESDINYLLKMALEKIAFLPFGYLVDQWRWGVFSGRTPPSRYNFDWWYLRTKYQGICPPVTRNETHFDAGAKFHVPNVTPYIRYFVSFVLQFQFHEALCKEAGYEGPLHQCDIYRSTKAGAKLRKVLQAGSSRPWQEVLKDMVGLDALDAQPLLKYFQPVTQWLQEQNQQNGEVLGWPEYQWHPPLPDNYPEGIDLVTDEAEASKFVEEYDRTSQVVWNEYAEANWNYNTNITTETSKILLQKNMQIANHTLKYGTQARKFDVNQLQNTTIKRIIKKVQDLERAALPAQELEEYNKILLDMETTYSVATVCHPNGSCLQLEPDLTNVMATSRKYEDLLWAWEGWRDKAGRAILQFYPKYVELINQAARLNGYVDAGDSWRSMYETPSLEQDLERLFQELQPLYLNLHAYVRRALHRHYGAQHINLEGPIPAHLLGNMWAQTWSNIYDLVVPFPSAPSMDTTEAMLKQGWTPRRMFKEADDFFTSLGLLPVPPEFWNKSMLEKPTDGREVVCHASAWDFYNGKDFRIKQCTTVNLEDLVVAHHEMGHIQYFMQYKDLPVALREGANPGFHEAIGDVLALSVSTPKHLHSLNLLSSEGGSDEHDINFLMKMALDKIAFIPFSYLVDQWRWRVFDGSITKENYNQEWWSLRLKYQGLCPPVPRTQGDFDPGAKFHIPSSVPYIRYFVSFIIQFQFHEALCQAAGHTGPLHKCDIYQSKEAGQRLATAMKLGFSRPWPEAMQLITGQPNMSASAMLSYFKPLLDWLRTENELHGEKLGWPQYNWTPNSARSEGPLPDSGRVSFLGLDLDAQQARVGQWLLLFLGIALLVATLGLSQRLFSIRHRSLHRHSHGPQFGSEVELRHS

[8] = system: proliferating hemangioma cells; test: Experiment 7: different ACEi and beta blockers on one primary cell line, MTT; type: cell-based, human; details: for Results Summary: 72 hours, one cell line; for inhibition at 1 µM / inhibition at 10 µM: Homo sapiens, 72 h, read-out: Inhibition vs. Cells + Adjuvant at 72 Hours
Description: as §1
as §2, with “After 24 hours, one set of plates (experimental and blank) is stopped.” left out, “protocols.” for “protocols. This is repeated at 48 and 72 hours.”
as §3
Briefly, cells were seeded in 96-well plates at concentrations of 2500 cells/well in triplicate for each drug and drug combination. […] All plates were performed in triplicate. Beta blockers used in the study were (±)-propranolol, R-propranolol, S-propranolol, timolol, and betaxalol.

proliferating IH = details: topical 0.5% solution or gel; cited from earlier work

| SMILES | Individual Responders at 72 Hours with ≥30% Inhibition vs. Cells + Adjuvant ([1]; 1 μM) | Individual Responders at 72 Hours with ≥30% Inhibition vs. Cells + Adjuvant ([1]; 10 μM) [μM - 4/5] | Results Summary [1] | Estimated Optimal Dosage Range in vitro [1] [µM] | inhibition of all five patient-derived haemangioma cell lines [1] | pKa [2] | pKa ([2]; second value) | Solubility [3] [µg/mL] | dose-response across all cell lines [4] | Log P ([5]; Table 1) | log P [5] | Half life: short or long acting [6] | inhibitory effect on haemangioma cell proliferation [7] | increase in the inhibition of haemangioma cell proliferation compared to timolol ([7]; 24 hours) [fold] | IC50 (ACE) [nM] | inhibition of proliferating hemangioma cells ([8]; 1 μM and 10 μM) | Results Summary [8] | inhibition at 1 µM [8] [%] | inhibition at 10 µM [8] [%] | clinical response (proliferating IH) |
| --- | --- | --- | --- | --- | --- | --- | --- | --- | --- | --- | --- | --- | --- | --- | --- | --- | --- | --- | --- | --- |
| CCOC(=O)[C@H](CCc1ccccc1)N[C@H]1CCCN2CCC[C@@H](C(=O)O)N2C1=O [Cilazapril] | 1 μM - 1/5 | 10 | Responder | 1 to 10 | significantly inhibited | 3.4 | 6.5 | 5000 (≈ 12 mM) | typical dose-response | 0.8 | 0.8 | Long acting | diminishes over time | 7 | 4 | good and similar level of inhibition | Responder | 4.35 | 60.5 |  |
| CC(C)(C)NC[C@H](O)COc1nsnc1N1CCOCC1 [Timolol] | 1 μM - 0/5 | 10 | Responder | 1 to 10 | significantly inhibited |  |  |  |  |  |  |  | little effect; also recorded: consistent |  |  |  | Responder | 11.1 | 57 | clinically beneficial response |
